Experimental data as given in PubChem BioAssay (NCI).
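Tested at 5 concentrations; 48 h exposure; 96-well plates; endpoints linearly interpolated, else capped at highest concentration. At the GI50, growth is halved. TGI denotes the concentration required for complete inhibition of growth.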

Legend:
Test in all cases: NCI tumour cell line growth inhibition, 48 h
786-0 renal = test system: 786-0 renal
A498 renal = test system: A498 renal
A549 NSCLC = test system: A549 NSCLC
ACHN renal = test system: ACHN renal
BT-549 breast = test system: BT-549 breast
CAKI-1 renal = test system: CAKI-1 renal
CCRF-CEM leukemia = test system: CCRF-CEM leukemia
COLO 205 colon = test system: COLO 205 colon
DU-145 prostate = test system: DU-145 prostate
EKVX NSCLC = test system: EKVX NSCLC
HCC-2998 colon = test system: HCC-2998 colon
HCT-116 colon = test system: HCT-116 colon
HCT-15 colon = test system: HCT-15 colon
HL-60(TB) leukemia = test system: HL-60(TB) leukemia
HOP-62 NSCLC = test system: HOP-62 NSCLC
HOP-92 NSCLC = test system: HOP-92 NSCLC
HS 578T breast = test system: HS 578T breast
HT29 colon = test system: HT29 colon
IGROV1 ovarian = test system: IGROV1 ovarian
K-562 leukemia = test system: K-562 leukemia
KM12 colon = test system: KM12 colon
LOX IMVI melanoma = test system: LOX IMVI melanoma
M14 melanoma = test system: M14 melanoma
MALME-3M melanoma = test system: MALME-3M melanoma
MCF7 breast = test system: MCF7 breast
MDA-MB-231 breast = test system: MDA-MB-231 breast
MDA-MB-435 = test system: MDA-MB-435
MOLT-4 leukemia = test system: MOLT-4 leukemia
NCI-H226 lung = test system: NCI-H226 lung
NCI-H23 lung = test system: NCI-H23 lung
NCI-H460 lung = test system: NCI-H460 lung
NCI-H522 lung = test system: NCI-H522 lung
NCI/ADR-RES ovarian = test system: NCI/ADR-RES ovarian
OVCAR-3 ovarian = test system: OVCAR-3 ovarian
OVCAR-4 ovarian = test system: OVCAR-4 ovarian
OVCAR-5 ovarian = test system: OVCAR-5 ovarian
OVCAR-8 ovarian = test system: OVCAR-8 ovarian
PC-3 prostate = test system: PC-3 prostate
RPMI-8226 leukemia = test system: RPMI-8226 leukemia
RXF 393 renal = test system: RXF 393 renal
SF-268 CNS = test system: SF-268 CNS
SF-295 CNS = test system: SF-295 CNS
SF-539 CNS = test system: SF-539 CNS
SK-MEL-2 melanoma = test system: SK-MEL-2 melanoma
SK-MEL-28 melanoma = test system: SK-MEL-28 melanoma
SK-MEL-5 melanoma = test system: SK-MEL-5 melanoma
SK-OV-3 ovarian = test system: SK-OV-3 ovarian
SN12C renal = test system: SN12C renal
SNB-19 CNS = test system: SNB-19 CNS
SNB-75 CNS = test system: SNB-75 CNS
SR leukemia = test system: SR leukemia
SW-620 colon = test system: SW-620 colon
T-47D breast = test system: T-47D breast
TK-10 renal = test system: TK-10 renal
U251 CNS = test system: U251 CNS
UACC-257 melanoma = test system: UACC-257 melanoma
UACC-62 melanoma = test system: UACC-62 melanoma
UO-31 renal = test system: UO-31 renal

O=C(OC[C@H]1O[C@H](OC(=O)c2cc(O)c(O)c(OC(=O)c3cc(O)c(O)c(O)c3)c2)[C@H](OC(=O)c2cc(O)c(O)c(OC(=O)c3cc(O)c(O)c(O)c3)c2)[C@@H](OC(=O)c2cc(O)c(O)c(OC(=O)c3cc(O)c(O)c(O)c3)c2)[C@@H]1OC(=O)c1cc(O)c(O)c(OC(=O)c2cc(O)c(O)c(O)c2)c1)c1cc(O)c(O)c(OC(=O)c2cc(O)c(O)c(O)c2)c1
GI50 (786-0 renal): 4.89 µM
TGI (786-0 renal): 20.2 µM
GI50 (A498 renal): > 25 µM
TGI (A498 renal): > 25 µM
GI50 (A549 NSCLC): 1.4 µM
TGI (A549 NSCLC): > 25 µM
GI50 (ACHN renal): 6.42 µM
TGI (ACHN renal): > 25 µM
GI50 (BT-549 breast): 6.77 µM
TGI (BT-549 breast): > 25 µM
GI50 (CAKI-1 renal): 1.39 µM
TGI (CAKI-1 renal): > 25 µM
GI50 (CCRF-CEM leukemia): 3.23 µM
TGI (CCRF-CEM leukemia): > 25 µM
GI50 (COLO 205 colon): 8.17 µM
TGI (COLO 205 colon): > 25 µM
GI50 (DU-145 prostate): 3.57 µM
TGI (DU-145 prostate): > 25 µM
GI50 (EKVX NSCLC): 5.2 µM
TGI (EKVX NSCLC): > 25 µM
GI50 (HCC-2998 colon): 2.52 µM
TGI (HCC-2998 colon): > 25 µM
GI50 (HCT-116 colon): 1.57 µM
TGI (HCT-116 colon): 6.98 µM
GI50 (HCT-15 colon): 6.2 µM
TGI (HCT-15 colon): > 25 µM
GI50 (HL-60(TB) leukemia): 7.53 µM
TGI (HL-60(TB) leukemia): 23.5 µM
GI50 (HOP-62 NSCLC): 1.78 µM
TGI (HOP-62 NSCLC): > 25 µM
GI50 (HOP-92 NSCLC): 10.6 µM
TGI (HOP-92 NSCLC): > 25 µM
GI50 (HS 578T breast): 10.3 µM
TGI (HS 578T breast): > 25 µM
GI50 (HT29 colon): 3.86 µM
TGI (HT29 colon): 9.22 µM
GI50 (IGROV1 ovarian): 3.69 µM
TGI (IGROV1 ovarian): > 25 µM
GI50 (K-562 leukemia): 9.63 µM
TGI (K-562 leukemia): > 25 µM
GI50 (KM12 colon): 1.67 µM
TGI (KM12 colon): > 25 µM
GI50 (LOX IMVI melanoma): 1.24 µM
TGI (LOX IMVI melanoma): > 25 µM
GI50 (M14 melanoma): 5.01 µM
TGI (M14 melanoma): > 25 µM
GI50 (MALME-3M melanoma): 7.42 µM
TGI (MALME-3M melanoma): > 25 µM
GI50 (MCF7 breast): 5.21 µM
TGI (MCF7 breast): 11.1 µM
GI50 (MDA-MB-231 breast): 0.898 µM
TGI (MDA-MB-231 breast): > 25 µM
GI50 (MDA-MB-435): 1.5 µM
TGI (MDA-MB-435): 7.89 µM
GI50 (MOLT-4 leukemia): 4.32 µM
TGI (MOLT-4 leukemia): > 25 µM
GI50 (NCI-H226 lung): 3.23 µM
TGI (NCI-H226 lung): 18 µM
GI50 (NCI-H23 lung): 1.56 µM
TGI (NCI-H23 lung): > 25 µM
GI50 (NCI-H460 lung): 1.09 µM
TGI (NCI-H460 lung): > 25 µM
GI50 (NCI-H522 lung): 1.96 µM
TGI (NCI-H522 lung): 7.68 µM
GI50 (NCI/ADR-RES ovarian): 1.3 µM
TGI (NCI/ADR-RES ovarian): 18.9 µM
GI50 (OVCAR-3 ovarian): 4.68 µM
TGI (OVCAR-3 ovarian): 22.1 µM
GI50 (OVCAR-4 ovarian): 4.67 µM
TGI (OVCAR-4 ovarian): 18.3 µM
GI50 (OVCAR-5 ovarian): 4.95 µM
TGI (OVCAR-5 ovarian): > 25 µM
GI50 (OVCAR-8 ovarian): 1.91 µM
TGI (OVCAR-8 ovarian): > 25 µM
GI50 (PC-3 prostate): 2.33 µM
TGI (PC-3 prostate): > 25 µM
GI50 (RPMI-8226 leukemia): 7.35 µM
TGI (RPMI-8226 leukemia): > 25 µM
GI50 (RXF 393 renal): 1.2 µM
TGI (RXF 393 renal): 7.48 µM
GI50 (SF-268 CNS): 2.18 µM
TGI (SF-268 CNS): > 25 µM
GI50 (SF-295 CNS): 0.941 µM
TGI (SF-295 CNS): > 25 µM
GI50 (SF-539 CNS): 5.56 µM
TGI (SF-539 CNS): > 25 µM
GI50 (SK-MEL-2 melanoma): 9.02 µM
TGI (SK-MEL-2 melanoma): > 25 µM
GI50 (SK-MEL-28 melanoma): 12.8 µM
TGI (SK-MEL-28 melanoma): > 25 µM
GI50 (SK-MEL-5 melanoma): 2.98 µM
TGI (SK-MEL-5 melanoma): 13.1 µM
GI50 (SK-OV-3 ovarian): 2.25 µM
TGI (SK-OV-3 ovarian): > 25 µM
GI50 (SN12C renal): 4.2 µM
TGI (SN12C renal): > 25 µM
GI50 (SNB-19 CNS): 2.57 µM
TGI (SNB-19 CNS): > 25 µM
GI50 (SNB-75 CNS): 2.37 µM
TGI (SNB-75 CNS): > 25 µM
GI50 (SR leukemia): 1.86 µM
TGI (SR leukemia): > 25 µM
GI50 (SW-620 colon): 5.48 µM
TGI (SW-620 colon): > 25 µM
GI50 (T-47D breast): 2.85 µM
TGI (T-47D breast): 16.6 µM
GI50 (TK-10 renal): 7.66 µM
TGI (TK-10 renal): > 25 µM
GI50 (U251 CNS): 1.9 µM
TGI (U251 CNS): > 25 µM
GI50 (UACC-257 melanoma): 13.4 µM
TGI (UACC-257 melanoma): > 25 µM
GI50 (UACC-62 melanoma): 0.985 µM
TGI (UACC-62 melanoma): > 25 µM
GI50 (UO-31 renal): 2.61 µM
TGI (UO-31 renal): > 25 µM
